Assay results from US12359259B2, “Biomarkers for predicting prostate cancer progression” (ACADEMIA SINICA, priority 2018, dated 2025).

How the values were obtained:
Type in all cases: cell-based
MYC and C1GALT1 = assay: Immunoblots of MYC and C1GALT1 levels under inhibitor treatment; settings: 22Rv1-M4 and galectin-4-expressing 22Rv1 and LNCaP cells; 24 h
Description: Data are expressed as mean±SEM. *P<0.05, **P<0.01, ***P<0.001 (unpaired t-test, two-tail).

[1] = system: LNCaP-tetO-Gal4 and 22Rv1-tetO-Gal4 cells; assay: Lectin binding assay (flow cytometry) of cell surface glycans after glycosylation inhibitor treatment
Procedure: FIG. 8A to FIG. 8C show the characterization of glycophenotype in prostate cancer cells. FIG. 8A and FIG. 8B show lectin binding assay of LNCaP-tetO-Gal4 (A) and 22Rv1-tetO-Gal4 (B) cells treated with 3 μM Swainsonine or 4 mM Benzyl-α-GalNAc for 2 day following galectin-4 induction by doxycycline. […] Below, the mean fluorescence intensity (MFI) values from triplicates. Data are expressed as mean±SEM. *P<0.05, **P<0.01, ***P<0.001 (unpaired t-test, two-tail).
To profile cell surface glycans, cells were detached by Accutase (Innovative Cell Technologies, San Diego, CA) treatment, washed with PBS for three times, and suspended in Carbo-Free Blocking Solution (VECTOR, Burlingame, CA). Cells were incubated with biotin-conjugated lectins, PHA-L (2 μg/mL), PNA (10 μg/mL), MALII (5 μg/mL), Jacalin (5 μg/mL, VECTOR), and galectin-4 (5 μg/mL), or BSA as a control followed by APC-labeled streptavidin. After incubation for 30 min on ice, cells were analyzed on an Accuri C6 flow cytometer (BD Biosciences, Taiwan). Galectin-4 (R&D Systems, Minneapolis, MN) and BSA were biotinylated using Lightning-Link Rapid Conjugation System (Innova Biosciences, Cambridge, UK) following the manufacturer's instructions.

[2] = system: HER2/3 phosphorylation, AR, and PSA expression; assay: Immunoblots of HER2/3 phosphorylation, AR and PSA expression after galectin-4 induction
SOX9 expression = assay: Immunoblots of SOX9 expression in 22Rv1-M4 cells; settings: 3 μM Swainsonine or 4 mM Benzyl-α-GalNAc for 2 days
LNCaP-CR4 cells = assay: Colony-formation assay under enzalutamide treatment; settings: LNCaP-CR4 vs LNCaP; 10 days
[3] = 4 mM Benzyl-α-GalNAc for 2 day, PCa cells

## N#CC(=C(N)Sc1ccc(N)cc1)c1ccccc1C(F)(F)F [MEK1/2 inhibitor]
MYC and C1GALT1
  induction of MYC and C1GALT1 compared to vehicle treatment: blocked

## CC(=O)N[C@H]1[C@@H](OCc2ccccc2)O[C@H](CO)[C@H](O)[C@@H]1O [benzyl-α-GalNAc]
[1]; [3]
  binding of treated cells to MALII: reduced
  binding of treated cells to PNA: increased
[1]; PCa cells
  biosynthesis of α2,3-sialyl-T antigen: significantly impaired
[2]; 4 mM Benzyl-α-GalNAc for 2 day, galectin-4 expressing LNCaP and 22Rv1 cells
  galectin-4-mediated activation of HER2/3 and AR signaling: blocked
[2]; PCa cells
  galectin-4 activity: suppressed
SOX9 expression
  SOX9 expression: significantly inhibited

## CNC(=O)c1ccc(N2C(=S)N(c3ccc(C#N)c(C(F)(F)F)c3)C(=O)C2(C)C)cc1F [enzalutamide]
LNCaP-CR4 cells
  clonogenic growth of LNCaP-CR4 cells under enzalutamide: resistance

## O[C@H]1[C@H]2[C@H](O)CCCN2C[C@H]1O [swainsonine]
[1]; 3 μM Swainsonine for 2 day following doxycycline-mediated galectin-4 induction, LNCaP and 22Rv1 cells
  PHA-L staining for N-glycans: decreased
[2]; 3 μM Swainsonine for 2 day, galectin-4 expressing LNCaP and 22Rv1 cells
  HER2/3 phosphorylation and induction of AR and PSA protein expression: did not affect
SOX9 expression
  SOX9 expression: did not affect
